Source: US8952024B2, “Herbicidal pyrimidone derivatives” (E I du Pont de Nemours and Company, priority 2009, dated 2015)

Key:
Type in all cases: in vivo
[1] = tested on: barnyardgrass (Echinochloa crus-galli); assay: Test A pre-/postemergence plant response
Text: (§1) Seeds of barnyardgrass (Echinochloa crus-galli), large crabgrass (Digitaria sanguinalis), giant foxtail (Setaria faberii), morningglory (Ipomoea spp.), pigweed (Amaranthus retroflexus), velvetleaf (Abutilon theophrasti), wheat (Triticum aestivum) and corn (Zea mays) were planted into a blend of loam soil and sand and treated preemergence with a directed soil spray using test chemicals formulated in a non-phytotoxic solvent mixture which included a surfactant. At the same time these species were also treated with postemergence applications of test compounds formulated in the same manner.
(§2) Plants ranged in height from two to ten cm and were in the one- to two-leaf stage for the postemergence treatment. Treated plants and untreated controls were maintained in a greenhouse for approximately ten days, after which time all treated plants were compared to untreated controls and visually evaluated for injury. Plant response ratings, summarized in Table A, are based on a 0 to 100 scale where 0 is no effect and 100 is complete control. A dash (-) response means no test result.

corn (Zea mays) = assay: Test A pre-/postemergence plant response
Text: as §1, §2

[2] = tested on: giant foxtail (Setaria faberii); assay: Test A pre-/postemergence plant response
Text: as §1, §2

[3] = tested on: large crabgrass (Digitaria sanguinalis); assay: Test A pre-/postemergence plant response
Text: as §1, §2

[4] = tested on: morningglory (Ipomoea spp.); assay: Test A pre-/postemergence plant response
Text: as §1, §2

[5] = tested on: pigweed (Amaranthus retroflexus); assay: Test A pre-/postemergence plant response
Text: as §1, §2

[6] = tested on: velvetleaf (Abutilon theophrasti); assay: Test A pre-/postemergence plant response
Text: as §1, §2

[7] = tested on: wheat (Triticum aestivum); assay: Test A pre-/postemergence plant response
Text: as §1, §2

[8] = tested on: barnyardgrass (Echinochloa crus-galli); assay: Test B flooded paddy test; conditions: for Plant response rating, Flood, Barnyardgrass: 250 g ai/ha, flooded paddy test, visual rating on 0 to 100 scale (0 no effect, 100 complete control) after 13 to 15 days; for Plant response rating, Barnyardgrass: Flood (flooded paddy test), 13 to 15 days; for Barnyardgrass plant response rating: Flood, 31 g ai/ha, scale 0 to 100 (0 no effect, 100 complete control)
Method in brief: (§3)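 Post-flood paddy application: compounds are introduced into water 3 cm deep over the soil, reaching plants at the 2-leaf stage. The water level is maintained, and after 13–15 days under greenhouse conditions, response is judged by eye relative to controls, where 100 means complete control.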

[9] = tested on: ducksalad (Heteranthera limosa); assay: Test B flooded paddy test; conditions: for Plant response rating, Flood, Ducksalad: 250 g ai/ha, flooded paddy test, visual rating on 0 to 100 scale (0 no effect, 100 complete control) after 13 to 15 days; for Plant response rating, Ducksalad: Flood (flooded paddy test), 13 to 15 days; for Ducksalad plant response rating: Flood, 31 g ai/ha, scale 0 to 100 (0 no effect, 100 complete control)
Method in brief: as §3

rice (Oryza sativa) = assay: Test B flooded paddy test; conditions: for Plant response rating, Flood, Rice: 250 g ai/ha, flooded paddy test, visual rating on 0 to 100 scale (0 no effect, 100 complete control) after 13 to 15 days; for Plant response rating, Rice: Flood (flooded paddy test), 13 to 15 days; for Rice plant response rating: Flood, 31 g ai/ha, scale 0 to 100 (0 no effect, 100 complete control)
Method in brief: as §3

[10] = tested on: umbrella sedge (Cyperus difformis); assay: Test B flooded paddy test; conditions: for Plant response rating, Flood, Sedge, Umbrella: 250 g ai/ha, flooded paddy test, visual rating on 0 to 100 scale (0 no effect, 100 complete control) after 13 to 15 days; for Plant response rating, Sedge, Umbrella: Flood (flooded paddy test), 13 to 15 days; for Sedge, Umbrella plant response rating: Flood, 31 g ai/ha, scale 0 to 100 (0 no effect, 100 complete control)
Method in brief: as §3

[11] = Postemergence, 125 g ai/ha, 0 to 100 scale where 0 is no effect and 100 is complete control
[12] = Postemergence, 500 g ai/ha, 0 to 100 scale, 0 = no effect, 100 = complete control, approx. ten days
[13] = Preemergence, 125 g ai/ha, 0 to 100 scale, 0 = no effect, 100 = complete control
[14] = Preemergence, 500 g ai/ha, visual injury, 0 to 100 scale (0 no effect, 100 complete control), approx. ten days
[15] = 62 g ai/ha, scale of 0 to 100 where 0 is no effect and 100 is complete control
[16] = 125 g ai/ha, scale 0 to 100, 0 is no effect, 100 is complete control

O=C1CCCC(O)=C1C(=O)c1cnc(C2CCCCC2)n(-c2ccccc2)c1=O [Compound 106]
Plant response rating, Barnyardgrass [1, 11]: 10 | Plant response rating, Barnyardgrass [1, 12]: 50 | Plant response rating, Barnyardgrass [1, 13]: 10 | Plant response rating, Barnyardgrass [1, 14]: 50 | Plant response rating, Corn (corn (Zea mays); [11]): 0 | Plant response rating, Corn (corn (Zea mays); [12]): 10 | Plant response rating, Corn (corn (Zea mays); [13]): 0 | Plant response rating, Corn (corn (Zea mays); [14]): 0 | Plant response rating, Foxtail, Giant [2, 11]: 20 | Plant response rating, Foxtail, Giant [2, 12]: 60 | Plant response rating, Foxtail, Giant [2, 13]: 40 | Plant response rating, Foxtail, Giant [2, 14]: 70 | Plant response rating, Crabgrass, Large [3, 11]: 40 | Plant response rating, Crabgrass, Large [3, 12]: 70 | Plant response rating, Crabgrass, Large [3, 13]: 70 | Plant response rating, Crabgrass, Large [3, 14]: 80 | Plant response rating, Morningglory [4, 11]: 100 | Plant response rating, Morningglory [4, 12]: 100 | Plant response rating, Morningglory [4, 13]: 50 | Plant response rating, Morningglory [4, 14]: 80 | Plant response rating, Pigweed [5, 11]: 80 | Plant response rating, Pigweed [5, 12]: 100 | Plant response rating, Pigweed [5, 13]: 80 | Plant response rating, Pigweed [5, 14]: 90 | Plant response rating, Velvetleaf [6, 11]: 100 | Plant response rating, Velvetleaf [6, 12]: 100 | Plant response rating, Velvetleaf [6, 13]: 40 | Plant response rating, Velvetleaf [6, 14]: 60 | Plant response rating, Wheat [7, 11]: 0 | Plant response rating, Wheat [7, 12]: 0 | Plant response rating, Wheat [7, 13]: 0 | Plant response rating, Wheat [7, 14]: 0 | Plant response rating, Flood, Barnyardgrass [8]: 15 | Plant response rating, Barnyardgrass [8, 15]: 0 | Plant response rating, Barnyardgrass [8, 16]: 0 | Barnyardgrass plant response rating [8]: 0 | Plant response rating, Flood, Ducksalad [9]: 0 | Plant response rating, Ducksalad [9, 15]: 0 | Plant response rating, Ducksalad [9, 16]: 0 | Ducksalad plant response rating [9]: 0 | Plant response rating, Flood, Rice (rice (Oryza sativa)): 20 | Plant response rating, Rice (rice (Oryza sativa); [15]): 0 | Plant response rating, Rice (rice (Oryza sativa); [16]): 20 | Rice plant response rating (rice (Oryza sativa)): 0 | Plant response rating, Flood, Sedge, Umbrella [10]: 0 | Plant response rating, Sedge, Umbrella [10, 15]: 0 | Plant response rating, Sedge, Umbrella [10, 16]: 0 | Sedge, Umbrella plant response rating [10]: 0

CCCn1c(-c2ccco2)ncc(C(=O)C2=C(O)CCCC2=O)c1=O [Compound 110]
Plant response rating, Barnyardgrass [1, 11]: 60 | Plant response rating, Barnyardgrass [1, 12]: 90 | Plant response rating, Barnyardgrass [1, 13]: 20 | Plant response rating, Barnyardgrass [1, 14]: 60 | Plant response rating, Corn (corn (Zea mays); [11]): 0 | Plant response rating, Corn (corn (Zea mays); [12]): 10 | Plant response rating, Corn (corn (Zea mays); [13]): 0 | Plant response rating, Corn (corn (Zea mays); [14]): 0 | Plant response rating, Foxtail, Giant [2, 11]: 10 | Plant response rating, Foxtail, Giant [2, 12]: 50 | Plant response rating, Foxtail, Giant [2, 13]: 0 | Plant response rating, Foxtail, Giant [2, 14]: 10 | Plant response rating, Crabgrass, Large [3, 11]: 80 | Plant response rating, Crabgrass, Large [3, 12]: 90 | Plant response rating, Crabgrass, Large [3, 13]: 40 | Plant response rating, Crabgrass, Large [3, 14]: 80 | Plant response rating, Morningglory [4, 11]: 90 | Plant response rating, Morningglory [4, 12]: 100 | Plant response rating, Morningglory [4, 13]: 40 | Plant response rating, Morningglory [4, 14]: 70 | Plant response rating, Pigweed [5, 11]: 90 | Plant response rating, Pigweed [5, 12]: 100 | Plant response rating, Pigweed [5, 13]: 80 | Plant response rating, Pigweed [5, 14]: 90 | Plant response rating, Velvetleaf [6, 11]: 90 | Plant response rating, Velvetleaf [6, 12]: 100 | Plant response rating, Velvetleaf [6, 13]: 60 | Plant response rating, Velvetleaf [6, 14]: 70 | Plant response rating, Wheat [7, 11]: 0 | Plant response rating, Wheat [7, 12]: 0 | Plant response rating, Wheat [7, 13]: 0 | Plant response rating, Wheat [7, 14]: 0 | Plant response rating, Flood, Barnyardgrass [8]: 40 | Plant response rating, Barnyardgrass [8, 15]: 0 | Plant response rating, Barnyardgrass [8, 16]: 20 | Barnyardgrass plant response rating [8]: 0 | Plant response rating, Flood, Ducksalad [9]: 75 | Plant response rating, Ducksalad [9, 15]: 40 | Plant response rating, Ducksalad [9, 16]: 75 | Ducksalad plant response rating [9]: 0 | Plant response rating, Flood, Rice (rice (Oryza sativa)): 30 | Plant response rating, Rice (rice (Oryza sativa); [15]): 0 | Plant response rating, Rice (rice (Oryza sativa); [16]): 30 | Rice plant response rating (rice (Oryza sativa)): 0 | Plant response rating, Flood, Sedge, Umbrella [10]: 75 | Plant response rating, Sedge, Umbrella [10, 15]: 35 | Plant response rating, Sedge, Umbrella [10, 16]: 50 | Sedge, Umbrella plant response rating [10]: 30

CCn1c(-c2cccc(C)c2)ncc(C(=O)C2=C(O)CCCC2=O)c1=O [Compound 115]
Plant response rating, Barnyardgrass [1, 11]: 70 | Plant response rating, Barnyardgrass [1, 12]: 90 | Plant response rating, Barnyardgrass [1, 13]: 0 | Plant response rating, Barnyardgrass [1, 14]: 80 | Plant response rating, Corn (corn (Zea mays); [11]): 0 | Plant response rating, Corn (corn (Zea mays); [12]): 20 | Plant response rating, Corn (corn (Zea mays); [13]): 0 | Plant response rating, Corn (corn (Zea mays); [14]): 0 | Plant response rating, Foxtail, Giant [2, 11]: 50 | Plant response rating, Foxtail, Giant [2, 12]: 80 | Plant response rating, Foxtail, Giant [2, 13]: 20 | Plant response rating, Foxtail, Giant [2, 14]: 70 | Plant response rating, Crabgrass, Large [3, 11]: 60 | Plant response rating, Crabgrass, Large [3, 12]: 90 | Plant response rating, Crabgrass, Large [3, 13]: 20 | Plant response rating, Crabgrass, Large [3, 14]: 80 | Plant response rating, Morningglory [4, 11]: 90 | Plant response rating, Morningglory [4, 12]: 100 | Plant response rating, Morningglory [4, 13]: 60 | Plant response rating, Morningglory [4, 14]: 80 | Plant response rating, Pigweed [5, 11]: 100 | Plant response rating, Pigweed [5, 12]: 100 | Plant response rating, Pigweed [5, 13]: 70 | Plant response rating, Pigweed [5, 14]: 100 | Plant response rating, Velvetleaf [6, 11]: 100 | Plant response rating, Velvetleaf [6, 12]: 100 | Plant response rating, Velvetleaf [6, 13]: 60 | Plant response rating, Velvetleaf [6, 14]: 90 | Plant response rating, Wheat [7, 11]: 0 | Plant response rating, Wheat [7, 12]: 0 | Plant response rating, Wheat [7, 13]: 0 | Plant response rating, Wheat [7, 14]: 0 | Plant response rating, Flood, Barnyardgrass [8]: 65 | Plant response rating, Barnyardgrass [8, 15]: 50 | Plant response rating, Flood, Ducksalad [9]: 85 | Plant response rating, Ducksalad [9, 15]: 85 | Plant response rating, Flood, Rice (rice (Oryza sativa)): 20 | Plant response rating, Rice (rice (Oryza sativa); [15]): 20 | Plant response rating, Flood, Sedge, Umbrella [10]: 90 | Plant response rating, Sedge, Umbrella [10, 15]: 70

CCCCn1c(-c2cccc(C)c2)ncc(C(=O)C2=C(O)CCCC2=O)c1=O [Compound 116]
Plant response rating, Barnyardgrass [1, 11]: 80 | Plant response rating, Barnyardgrass [1, 12]: 100 | Plant response rating, Barnyardgrass [1, 13]: 10 | Plant response rating, Barnyardgrass [1, 14]: 70 | Plant response rating, Corn (corn (Zea mays); [11]): 0 | Plant response rating, Corn (corn (Zea mays); [12]): 10 | Plant response rating, Corn (corn (Zea mays); [13]): 0 | Plant response rating, Corn (corn (Zea mays); [14]): 0 | Plant response rating, Foxtail, Giant [2, 11]: 60 | Plant response rating, Foxtail, Giant [2, 12]: 90 | Plant response rating, Foxtail, Giant [2, 13]: 10 | Plant response rating, Foxtail, Giant [2, 14]: 60 | Plant response rating, Crabgrass, Large [3, 11]: 60 | Plant response rating, Crabgrass, Large [3, 12]: 80 | Plant response rating, Crabgrass, Large [3, 13]: 30 | Plant response rating, Crabgrass, Large [3, 14]: 70 | Plant response rating, Morningglory [4, 11]: 100 | Plant response rating, Morningglory [4, 12]: 100 | Plant response rating, Morningglory [4, 13]: 0 | Plant response rating, Morningglory [4, 14]: 40 | Plant response rating, Pigweed [5, 11]: 100 | Plant response rating, Pigweed [5, 12]: 100 | Plant response rating, Pigweed [5, 13]: 60 | Plant response rating, Pigweed [5, 14]: 100 | Plant response rating, Velvetleaf [6, 11]: 70 | Plant response rating, Velvetleaf [6, 12]: 100 | Plant response rating, Velvetleaf [6, 13]: 30 | Plant response rating, Velvetleaf [6, 14]: 60 | Plant response rating, Wheat [7, 11]: 0 | Plant response rating, Wheat [7, 12]: 0 | Plant response rating, Wheat [7, 13]: 0 | Plant response rating, Wheat [7, 14]: 0 | Plant response rating, Flood, Barnyardgrass [8]: 75 | Plant response rating, Barnyardgrass [8, 15]: 65 | Plant response rating, Flood, Ducksalad [9]: 85 | Plant response rating, Ducksalad [9, 15]: 80 | Plant response rating, Flood, Rice (rice (Oryza sativa)): 0 | Plant response rating, Rice (rice (Oryza sativa); [15]): 0 | Plant response rating, Flood, Sedge, Umbrella [10]: 90 | Plant response rating, Sedge, Umbrella [10, 15]: 75
